From a melting point compilation (Tetko et al.; mined from patent text by program, amines drawn as free bases though some values may be those of a salt) come the findings set out here.

Each structure is given as a SMILES string.

On to `O=S(=O)(c1ccc2ccccc2c1)N1CCOc2ccc(CCCI)cc21`, for which the melting point lay within 87 to 88 °C.
Then `C#CCn1c(=O)[nH]c(=O)n(-c2cc(N3C(=O)C4=C(CCCC4)C3=O)c(F)cc2Cl)c1=O`, with 127 to 135 °C.
For `CC1(O)CC(=O)OC(CCc2ccc(Cl)cc2)C1` (stereo unspecified) the value was 61 to 64 °C.
Then `NC(c1ccnc(F)c1)C(O)c1cccc(C(F)(F)F)c1` (stereo unspecified), with 128 to 129 °C; and `CSc1nn(C)c2ccccc2c1=O`, with 173 to 175 °C; and `COc1ccc(OC)c2c(Cl)c(C#N)cnc12`, with 165 to 167 °C.
`CCN(CC)C(=O)c1ccc(C)c(-c2nc(SC)nc3c2CNC(=O)N3c2c(F)cccc2F)c1` yielded a melting point of 127 to 129 °C.
Turning to `C1=C(c2ccccc2)CSS1`, the melting point is 122 to 124 °C.
For `NC(=NO)c1ncn2c1[C@@H]1CCN1C(=O)c1cc(F)ccc1-2` the value was 248 to 250 °C; for `CCc1cc(-c2cccc(NC(C)=O)n2)c(OC)cc1OCCN(C)C`, 114 °C.
Then `NS(=O)(=O)c1ccccc1C1=CCCC1`, with 112 to 113 °C; and `CCc1cccc(CC)c1NC(=O)NCC1(c2ccccc2)CCCCC1`, with 185 to 186 °C.
For the compound `CC#CCCn1ncc2c(NC(=O)CC)c3c(nc21)CN(CCC)C3=O`, the melting point fell in the range of 130 to 132 °C.
Then `O=C(O)Cc1ccnc2c(NC(=O)c3c(Cl)cccc3Cl)cccc12`, with 228 to 230 °C; and `CCOc1ccc(-c2ccc3c(c2)C=C(C(=O)Nc2ccc(CN(C)C4CCOCC4)cc2)CCS3(=O)=O)cc1OCC`, with 224 to 226 °C; and `Cc1c(=O)n(Cc2ccccc2)c(=O)n2cc(C(=O)NCc3ccccc3)sc12`, with 176 to 178 °C.
For `COc1ccc(S(=O)(=O)N(CC(=O)NO)Cc2ccccc2)cc1` the value was 112 to 114 °C.
Then `CC(=O)N1CCN(c2cc3nc(C(C)(C)C)sc3cc2N=C=S)CC1`, with 100 to 102 °C; and `Cc1c(NC(=O)c2ccc(OC[C@@H]3CCCO3)cc2)ccc2c1cc(CNCC(C)(C)C)n2C`, with 179 °C; and `Cc1ccc(C2=NNC(=O)CC2)cc1OCC1CO1` (stereo unspecified), with 128 to 132 °C.
As for `CCCCCCCCCCCCCCCCCCN(CCCCCCCCCCCCCCCCCC)Cc1ccc(CN(CCO)CCO)cc1`, the melting point lay in the range of 49 to 50 °C.
Compound `CC1CC2=CC(=O)CCC2C2C(O)CC3(C)C(O)CCC3C12` (stereo unspecified) gave a melting point of 163 °C.
For `COc1ccc(C)cc1NC(=O)Nc1ccc(C2=CCN(C(=O)Nc3ccc(OCC(O)CO)cc3Cl)CC2)cc1` (stereo unspecified) the value was 125 to 128 °C; for `[N-]=[N+]=N[C@]1(C(=O)O)[C@H]2[C@@H](C[C@H]1O)[C@@H]2C(=O)O`, 124 to 128 °C; for `CCC1=C(O)C(=O)CO1`, 47 to 48 °C.
For `COC(=O)c1ccc(NN)c(Cl)c1` the value was 120 °C; for `N#CCc1ccccc1CCNC(=O)c1ccc([N+](=O)[O-])cc1`, 119 °C.
For `CCCCc1cn(CC(C)C)c(=O)n1Cc1ccc(-c2ccccc2-c2nnn[nH]2)nc1` the value was 160 to 162 °C.
In turn, `CN1CCCC1=Cc1ccc(Cl)cc1` returned a melting point of 63 °C.
For `O=C(O)c1ccc(NCc2ccc(F)cc2)cn1` the value was 197 to 200 °C; for `CC(C)(C)c1nnc(NN=Cc2ccccc2)s1`, 195 to 196 °C.
Then `CCOC(=O)c1c(O)c2ccccc2c2nc3ccccc3nc12`, with 126 to 127 °C; and `Cc1ccc(S(=O)(=O)OCCN(CCOS(=O)(=O)c2ccc(C)cc2)Sc2ccccc2[N+](=O)[O-])cc1`, with 91 to 93 °C.
For `COc1ccc(NC(=O)C(C#N)C(=O)c2cccn2C)cc1` (stereo unspecified) the value was 192 to 193 °C.
Take `COC(=O)c1ccc(Cl)c(NN)c1`: the melting point was in the range of 218 to 220 °C.
For `O=[N+]([O-])c1ccc(N2CC(O)C2)c(F)c1` the value was 130 to 132 °C; for `O=C(O)C(O)C(O)C(=O)NCc1ccc2c(c1)-c1n[nH]c(=O)c3cccc(c13)O2` (stereo unspecified), 181 to 185 °C.
Consider `O=C1CCSc2cc(-c3ccccc3)ccc21`, for which the melting point is 85 to 87 °C.
Take `COc1cccc2cc(C(=O)Oc3ccc(Cl)cn3)c(=O)oc12`: the melting point was 203 to 204 °C.
`Cc1ccc2[nH]c3c(c2c1)CC(C)n1c-3nc2c(c1=O)CCCC2` (stereo unspecified): the melting point turned out to be 220 °C.
Then `CS(=O)(=O)c1ccc(-c2cnn(Cc3c(F)c(F)c(F)c(F)c3F)c(=O)c2-c2ccc(F)cc2)cc1`, with 115 to 116 °C; and `CC(CCOc1cccc(=O)n1O)CC(C)(C)C` (stereo unspecified), with 130 to 131 °C.
For the compound `OC(=S)CCc1ccccc1`, the melting point turned out to be 60 °C.
For `C=CCOC(=O)C=CC(=O)NC(N)=O` the value was 108 to 110 °C; for `O=S(=O)(c1ccc(Oc2cccc(C(F)(F)F)c2)cc1)c1ccc(Oc2cccc(C(F)(F)F)c2)cc1`, 96.5 to 97.5 °C.
Then `Brc1c(NC2=NCCN2)ccc2c1ncn2Cc1ccccc1`, with 197 to 198 °C; and `Cn1nc(C(=O)O)nc1CCCC(O)=S`, with 118 to 120 °C; and `CNC(=O)c1ccc(-c2ccc(OC)c(-c3cccc([N+](=O)[O-])c3)c2)cc1`, with 171 to 172 °C.
Then `CC(CN(C)C)Nc1ccnc2cc(Cl)ccc12` (racemic), with 168 to 170 °C; and `OCC1(c2nn(Cc3ccccc3F)c3nccnc23)CC=CO1` (stereo unspecified), with 194 °C; and `N#Cc1ccc(C(=O)Nc2cccc(C(=O)O)c2)cc1`, with 267 °C.
`COc1ccc(-c2[nH]c(-c3ccc([N+](=O)[O-])c(C)c3)nc2C(=O)O)cc1` registered a melting point of 229 to 230 °C.
For `CC(CC(C(=O)N(C)C)(c1ccccc1)c1ccccc1)N1CCC(NC(=O)c2ccccc2O)C(O)C1` (stereo unspecified) the value was 154 °C; for `CCCOc1c(-c2ccccc2)n[nH]c1-c1ccccc1`, 132 °C.
For `Cc1cc(-c2ccccc2)nc2c1ccn2-c1ccc(C(C)C)cc1Br` the value was 95.8 °C.
Regarding `Cc1ccc(C(C#N)=NOS(C)(=O)=O)cc1C`, the melting point is 91 to 95 °C.
Then `COc1cc(C)c2c(c1)-c1c([nH]c3ccccc13)C2`, with 208 °C.
For `O=NCNC1=Nc2sc(Cl)cc2C(c2ccccc2)=NC1` the value was 108 to 110 °C; for `N#CCc1ccc2c(c1)Cc1cccnc1O2`, 166 to 167 °C; for `COc1ccc(C2=NN(C3CCN(S(=O)(=O)c4cccc(C#N)c4)CC3)C(=O)C(C)(C)C2)cc1OC`, 158 to 160 °C.
As for `COc1ccc(C)cc1NC(=O)Nc1ccc(N2CCN(C(=O)OC(C)(C)C)CC2)cc1C`, the melting point fell in the range of 169 to 171 °C.
For `Cc1[nH]cnc1CSCCN=CNS(=O)(=O)c1ccccc1` the value was 48 to 51 °C.
Then `O=c1[nH][nH]c(=O)c2c(O)c3cc([N+](=O)[O-])ccc3nc12`, with 264 °C.
For `CS(=O)(=O)c1nc(OCc2ccccc2)cc(C(F)(F)F)n1` the value was 115 to 118 °C; for `CC12CCC(=O)C=C1CCC1C2=CCC2(C)C1CCC2(O)C(=O)CCl` (stereo unspecified), 227 to 228 °C.
For `CCN(CC)CCNC(=O)c1c2cc(I)ccc2nc2ccc(I)cc12`, the melting point lay within 209 to 211 °C.
Then `CC(C#N)c1ccc2nc(N)sc2c1` (stereo unspecified), with 165 °C.
In turn, `Cc1c(-c2ccccc2)[nH]c(=O)n1C1CCN(Cc2cccc(C(F)(F)F)c2)CC1` came in with a melting point of 243 °C.
Then `Nc1cccc2c(=O)[nH]ncc12`, with 289 to 291 °C; and `CON=C1CCCc2cc(OCCCOc3c(Cl)cc(OCC=C(Cl)Cl)cc3Cl)ccc21`, with 75 to 77 °C; and `CC(C)(C)OC(=O)NCC1(CC(=O)O)CCCCC1`, with 109 to 111 °C.
`CC(C)[C@H](NC(=O)OCc1ccccc1)C(=O)NC(Cc1ccccc1)C(O)C(N)Cc1ccccc1` (stereo partly specified) had a melting point of 158 to 160 °C.
Compound `Cc1cc(SC2=C(O)CC(CCc3ccc(O)cc3)(C3CCCCC3)OC2=O)c(C(C)(C)C)cc1OS(=O)(=O)c1ccccc1` (stereo unspecified) registered a melting point of 180 °C.
For `CC(C)C[C@H](NC(=O)CCCc1ccccc1)C(=O)N[C@@H](Cc1ccccc1)C(=O)CSCc1ccco1` the value was 106 to 108 °C.
Compound `CCOc1ccc2c(c1O)CCN(C(C)=O)[C@@H]2c1cc(Cl)cc(Cl)c1` displayed a melting point of 238 to 241 °C.
For `CC(=O)N1CCc2sc(/C=C3/C(=O)N4C(C(=O)O)=CS[C@H]34)cc2C1` the value was 362 °C; for `CC(CN1CCCCC1)Nc1ccnc2cc(Cl)ccc12` (racemic), 168 to 171 °C.
`CCN(C(=O)n1nnc2cc(Cl)c(Cl)cc21)c1ccccc1`: the melting point came out at 120 °C.
Then `CCCCCCCCc1ccc2nc(N)nc(N)c2c1C`, with 262 to 264 °C; and `CCn1ncc2c(NCc3ccc(OC)c(OC)c3)c3ccccc3nc21`, with 169 to 171 °C.
For `CSc1nccn1CC(=O)NC1C(=O)N2C(C(=O)O)=C(COC(C)=O)CSC12` (stereo unspecified) the value was 245 to 247 °C.
Then `Cc1ccc([N+](=O)[O-])cc1Nc1nccc(-c2cncc(Br)c2)n1`, with 206 to 208 °C.
In the case of `CC(CS)C(=O)N(CC(=O)O)CC1CCCO1` (stereo unspecified), the melting point fell in the range of 128 to 130 °C.
The compound `CN(C)C(=O)CN1CCC(c2ccc(Nc3nc4c(-c5cnn(-c6ccc(F)cc6)c5)cccn4n3)cc2)CC1` registered a melting point of 131 to 133 °C.
For `CCn1cc(C(=O)O)c(=O)c2cc(F)c(N3CC(C)(N)C3)c(F)c21` the value was 293 to 296 °C; for `Oc1cccc(-c2csc(-c3cccnc3)n2)c1`, 180 to 181 °C.
Then `CC(=O)c1ccc(S(=O)(=O)N(CCO)CCO)cc1`, with 87.5 to 89.5 °C; and `CC1Cc2ccc([Si](C)(C)C)c(S(N)(=O)=O)c2S1(=O)=O` (stereo unspecified), with 171 to 172 °C; and `CCCc1c(OCCOc2ccccc2C(=O)O)ccc(C(C)=O)c1O`, with 108 to 110 °C.
Then `Cc1ccc(OCC(=O)c2cc(C(C)C)c(O)c(C(C)C)c2)cc1`, with 124 to 125 °C.
As to `CCc1nc2cc(N3CCN(C)CC3)nc(CC)n2n1`, the melting point was in the range of 87 to 88 °C.
